Tests used:
H2122 cells = assay: Covalent labelling of proteins in H2122 cells (click to fluorescent azide, SDS-PAGE); format: cell-based, human
Experimental: FIG. 7A. […] H2122 cells were treated with the indicated concentrations of SW208108 for 4 h followed by irradiation with a UV light or no irradiation. Cells were then lysed, protein was precipitated, resuspended in buffer and conjugated to an azide-containing dye using Cu catalysis following standard protocols. Samples were resolved under denaturing conditions on an SDS-PAGE gel and visualized using a fluorescent imager at the indicated wavelengths.
FIG. 7B. Chromone and Benzothiazole alkynes, like the oxalamide, covalently bind proteins of similar molecular weight. The arrows indicate a 37 kD and 30 kD band common to all three scaffolds.
To identify the target of the benzothiazoles, oxalamides, N-acyl ureas and chromones, we generated a potent oxalamide, SW208108, that features both a “crosslinker” and a “tag”. Upon exposure to UV light, the benzophenone group becomes reactive and was anticipated to crosslink to a nearby amino acid, and the alkyne serves as a “tag” by its capacity to react with an azide through “click chemistry”. Combining these features, we treated H2122 cells with various concentrations of SW208108 and either cultured them normally (“−UV”) or irradiated them briefly with UV light (“+UV”). Subsequently, we “clicked” the resulting lysate to a fluorescent azide, and detected multiple fluorescently labeled proteins on SDS-PAGE (FIG. 7A). […]

4 sensitive cell lines = assay: Rescue of toxicity by sodium oleate in 4 sensitive lines; format: cell-based, human; conditions: 100 μM sodium oleate
Source text: FIGS. 8D-8E. Sodium oleate rescues the toxicity of SCD1 inhibitors.
Consistent with this interpretation, the toxicity of SW208108 against 4 sensitive cell lines was fully rescued by adding sodium oleic acid to the culture media (FIG. 8D). Moreover, a commercially available SCD1 inhibitor (Cayman chemicals), originally described by Liu et al (compound 28c in the Journal of Medicinal Chemistry, 2007, 50, 3086-3100) was likewise toxic to the same 4 non-small cell lung cancer cell lines (FIG. 8E).

SCD1 [1] = target: T1, SCD1 (Homo sapiens, UniProt O00767); assay: Covalent adduct formation in 293t cells transfected with SCD1 or CYP4F11; format: cell-based; design: expressed in transfected cells; host or cells: 293t cells
T1 sequence (O00767 1-359): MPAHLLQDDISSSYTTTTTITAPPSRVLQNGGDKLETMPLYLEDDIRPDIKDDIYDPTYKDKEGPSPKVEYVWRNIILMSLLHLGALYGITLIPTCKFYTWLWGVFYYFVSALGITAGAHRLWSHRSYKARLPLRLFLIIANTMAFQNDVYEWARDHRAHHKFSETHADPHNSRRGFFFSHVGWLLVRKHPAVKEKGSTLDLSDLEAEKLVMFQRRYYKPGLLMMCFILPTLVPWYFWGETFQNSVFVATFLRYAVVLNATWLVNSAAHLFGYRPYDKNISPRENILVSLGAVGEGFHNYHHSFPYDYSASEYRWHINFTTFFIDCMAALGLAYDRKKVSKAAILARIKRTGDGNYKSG
Source text: FIGS. 10A-10F. Sensitive cells express high levels of CYP4 family members. FIG. 10A. relative expression levels of mRNA for a panel of cytochrome P450 enzymes from the cancer cell line encyclopedia (CCLE, http://www.broadinstitute.org/ccle) showing CYP4F11 in particular is highly expressed in 4 NSCLC lines that are sensitive to SCD1 inhibition. FIG. 10B. Western blot showing that CYP4F11 protein is expressed in all sensitive cell lines but not in the majority of insensitive cell lines. FIG. 10C. […] FIG. 10D. Cells were incubated with either a methoxy-containing oxalamide, which represents the pro-drug form, or the hydroxy containing oxalamide, which represents the active form of the drug. […] FIG. 10E. 293t cells were transfected with mammalian expression plasmids containing SCD1 or CYP4F11 as indicated. Cells were treated with either SW208108 or its demethylated congener, SW211666, and conjugated with a fluorescent dye as described in FIG. 7. Cells containing CYP4F11 form covalent adducts with both the pro-drug (methoxy) and drug form (demethylated, i.e. OH). […] FIG. 10F. Shown are the results of a tritium release assay in which tritiated water is produced from tritiated stearoyl CoA by the action of SCD1. […] By contrast, SW211666 but not SW208108 inhibits SCD1 in mouse preputial gland, which lacks CYP4F11 (bottom). […]

SCD1 [2] = target: T1, SCD1; assay: Immunoprecipitation of SW208108-bound protein with anti-SCD1; format: binding; design: The fluorescent bands confirm that p30 and p37 represent isoforms of SCD1; endogenous in cells; host or cells: H2122 cells
Experimental: FIG. 7L. Antibodies against SCD1 (Pierce) immunoprecipitate SW208108-bound protein. Samples were prepared as in FIG. 7A, and immunoprecipitated with either anti-SCD1 or IgG. The fluorescent bands confirm that p30 and p37 represent isoforms of SCD1.
SCD1 is the functional target of the oxalamides, benzothiazoles, chromones, and related derivatives. Covalent binding of SW208108 to SCD1 was confirmed by incubating cells in the presence of SW208108, lysing them, immunoprecipitating with antibodies to SCD1, and then clicking drug-bound proteins to a dye.

Compound: C#CCOc1ccc(C(=O)c2ccc(NC(=O)C(=O)NCCc3ccc(OC)cc3)cc2)cc1 [SW208108]
- covalent modification of proteins (p37, p30) in H2122 cells without UV (H2122 cells): covalently cross links proteins
- toxicity against 4 sensitive cell lines with sodium oleic acid (4 sensitive cell lines): fully rescued
- covalent modification of SCD1 in 293t cells in the absence of CYP4F11 (SCD1 [1]; SCD1 expressed alone): unable to covalently modify SCD1
- covalent modification of SCD1 in 293t cells expressing SCD1 and CYP4F11 (SCD1 [1]; with or without HET0016): covalently modify SCD1
- covalent binding to SCD1 (immunoprecipitation) (SCD1 [2]): confirmed

— US9789096B2, “Methods and compositions for selective and targeted cancer therapy” (Board of Regents of the University of Texas System, priority 2013, dated 2017)
